Data set [1] concerns L. infantum promastigotes. The experiment in a line: Anti-Leishmania activity, resazurin-based assay. In kind it is cell-based. The conditions noted are these: 72 h incubation, resazurin, highest concentration tested 40 µM, 95% CI in parentheses, read-out: Anti-Parasitic Activity IC50 (µM) 95% CI, L. infantum Promastigotes. The procedure:
Promastigotes from the L. infantum strain (MHOM/MA/67/ITMAP-263) were grown in 5-mL T25 flasks in Schneider’s insect medium supplemented with 10% heat-inactivated fetal bovine serum (FBS), 200 U/mL penicillin/streptomycin, 6 µg/mL Phenol Red, and 5 mM HEPES. The cultures were maintained in an incubator at 27 °C and diluted to 2 × 10^5/mL every 5 days. For the assays, the parasites used were equivalent to late/log with 2 or 3 days of culture.
The compounds’ efficacy against L. infantum promastigotes was evaluated using a resazurin-based assay. Parasites were added to 100 µL of serial dilutions of compounds in supplemented complete medium at a cell density of 5 × 10^5/mL. As a quality control, a dose–response curve to the antileishmanial drug miltefosine was included in all the assays. The final volume of the assay was 200 µL/well. Each condition was carried out in duplicate. Following 72 h of incubation at the specific conditions for parasites, 20 µL of a 0.5 mM resazurin solution was added, and the plates were incubated for a further 4 h under the same conditions. Fluorescence was measured at 544 nm and 590 nm excitation and emission wavelengths, respectively, using a Synergy 2 Multi-Mode Reader (Biotek, Winooski, VT, USA). Results are shown as % of parasite growth inhibition compared to control (untreated parasites) and represent the average of at least three independent experiments. The effect was evaluated by the determination of the IC50 value (concentration required to inhibit growth in 50%) and was calculated by non-linear regression curves using GraphPad Prism software, version 8.1.1 for Windows (GraphPad Software, San Diego, CA, USA).
A general note: Alamar Blue is a resazurin reagent that responds to reducing activity.

Data set [2] in a line: Cytotoxicity MTT assay on PMA-differentiated THP-1 macrophages. In kind it is cell-based. The conditions noted are these: human. On the procedure:
A human leukemia cell line, THP-1 (ATCC® TIB-202™), was cultured in RPMI-1640 medium supplemented with 10% heat-inactivated fetal bovine serum (FBS), 2 mM L-glutamine, 100 IU/mL penicillin/streptomycin, and 20 mM HEPES. The cell line was maintained in a humidified incubator at 37 °C and 5% CO2 by subculture every 3 days in 20 mL of media at a concentration of 2 × 10^5/mL in a T75 flask. All cell culture reagents were purchased from Lonza-Bioscience (Morrisville, NC, USA).
The cytotoxicity effect of compounds on THP-1-derived macrophages was assessed by colorimetric MTT assay (3-(4,5-dimethylthiazol-2-yl)-2,5-diphenyl tetrazolium bromide). Briefly, THP-1 cells were suspended in RPMI complete medium at a density of 1 × 10^6 cells/mL and 100 μL/well and were seeded in a 96-well plate and differentiated into macrophages by addition of 40 ng/mL of phorbol-myristate 13-acetate (PMA, Sigma, Saint Louis, MI, USA) for 24 h, followed by replacement with fresh medium for 24 more h. Subsequently, the cells were incubated with 100 μL of compounds ranging from 100 to 12.5 μM after dilution in the RPMI complete medium. Each condition was carried out in quadruplicate. After 72 h of incubation at 37 °C and 5% CO2, the medium was removed, and 200 μL of 0.5 mg/mL MTT solution diluted in RPMI was added. The plates were incubated for an additional 4 h. Then, 160 μL of media was removed, and the same volume of 2-propanol was added. Absorbance was read at 570 nm using a Synergy 2 Multi-Mode Reader (Biotek, Winooski, VT, USA). Cytotoxicity was evaluated by the determination of the CC50 value (drug concentration that reduced the percentage of viable cells by 50%) and calculated by non-linear regression analysis using GraphPad Prism software, version 8.1.1 for Windows (GraphPad Software, San Diego, CA, USA). The results represent the average of at least three independent experiments. For each compound, the selectivity index (SI) was calculated as the ratio between cytotoxicity in THP-1 (CC50, 72 h) and activity against parasites (IC50, 72 h).

The test system of data set [3] is T. brucei Lister 427 bloodstream forms. The experiment in a line: Anti-T. brucei activity, resazurin-based assay on bloodstream forms. The data set is classed as cell-based, Trypanosoma brucei. The conditions noted are these: Trypanosoma brucei; bloodstream forms, 72 h incubation, resazurin; read-out: Anti-Parasitic Activity IC50 (µM) 95% CI, T. brucei. On the procedure: T. brucei Lister 427 bloodstream forms were grown in a humidified incubator at 37 °C and 5% CO2 in complete HMI-9 medium supplemented with 10% heat-inactivated fetal bovine serum (FBS) and 100 UI/mL penicillin/streptomycin. Parasite maintenance was performed in T25 ventilated flasks by subpassage at a concentration of 1 × 10^4/mL every 2 days in T25 ventilated flasks. Luciferase-expressing L. infantum (MHOM/MA/67/ITMAP-263) axenic amastigotes expressing episomal luciferase were maintained in MAA20 [31] at 37 °C in a 5% CO2 environment with subculture every 7 days at 1 × 10^6/mL in 5-mL T25 ventilated flasks.
The compounds’ efficacy against bloodstream-stage trypomastigotes was evaluated using a resazurin-based assay. Parasites were added to 100 µL of serial dilutions of compounds in supplemented complete medium at a cell density of 5 × 10^3/mL. As a quality control, a dose–response curve for the antitrypanosomal pentamidine was included in all the assays. The final volume of the assay was 200 µL/well. Each condition was carried out in duplicate. Following 72 h of incubation at the specific conditions for parasites, 20 […] of a 0.5 mM resazurin solution was added, and the plates were incubated for a further 4 h under the same conditions. Fluorescence was measured at 544 nm and 590 nm excitation and emission wavelength, respectively, using a Synergy 2 Multi-Mode Reader (Biotek, Winooski, VT, USA). The results are shown as % of parasite growth inhibition compared to control (untreated parasites) and represent the average of at least three independent experiments. The effect was evaluated by the determination of the IC50 value (concentration required to inhibit growth in 50%) and calculated by non-linear regression curves using GraphPad Prism software, version 8.1.1 for Windows (GraphPad Software, San Diego, CA, USA).

Read-outs that look alike come from different tables or passages of the source.

In general, IC50 refers to the midpoint of a concentration-inhibition curve. As a reminder, the CC50 is the concentration giving 50% cytotoxicity.

For the molecule `CCCCCCCCCCCCCCCCOP(=O)([O-])OCC[N+](C)(C)C` [Miltefosine, miltefosine, reference compound], the IC50 in data set [1] was 11 µM. For the same molecule, the CC50 at 72 h in data set [2] (PMA-differentiated THP-1 macrophages, 72 h, MTT, 100 to 12.5 µM tested, read-out: Cytotoxicity CC50 (µM) 95% CI, THP-1) came out at 29.4 µM.
Take `N=C(N)c1ccc(OCCCCCOc2ccc(C(=N)N)cc2)cc1` [Pentamidine, pentamidine, reference compound]: the 50% inhibitory concentration (IC50) in data set [3] stood at 0.0056 µM. The CC50 at 72 h in data set [2] stood at 37.7 µM.

(Values after article PMC10671849, “Synthesis and Evaluation of Marine-Inspired Compounds Result in Hybrids with Antitrypanosomal and Antileishmanial Activities” (Marine Drugs, 2023).)
